{"source": "ChEMBL document CHEMBL5252641", "about": "“Design, synthesis, and evaluation of benzofuran-based chromenochalcones for antihyperglycemic and antidyslipidemic activities” (RSC Med Chem, 2023)", "key": {"Mus musculus [1]": {"system": "Mus musculus", "test": "Antidiabetic activity in db/db mouse assessed as decrease in HOMA index at 30 mg/kg administered for 15 consecutive days by oral glucose tolerance test relative to control", "format": "functional", "set-up": "scale not given: the % may be the effect or the level left", "settings": "time 15 day"}, "Mus musculus [2]": {"system": "Mus musculus", "test": "Antidiabetic activity in db/db mouse assessed as decrease in postprandial blood glucose at 30 mg/kg measured after 9 days", "format": "functional, organism-based", "settings": "time 9.0 day"}, "[3]": {"test": "Antioxidant activity assessed as hydroxyl radical scavenging activity at 100 uM incubated for 90 mins by spectrophotometric analysis", "format": "functional"}, "[4]": {"test": "Antioxidant activity assessed as superoxide anion radical scavenging activity at 100 uM incubated for 30 mins by spectrophotometric analysis", "format": "functional"}, "Syrian golden hamster [5]": {"system": "Syrian golden hamster", "test": "Antidyslipidemic activity in Triton-induced hyperlipidemic Syrian golden hamster model assessed as increase in post-heparin lipolytic activity at 50 mg/kg measured after 18 hrs", "format": "functional, Mesocricetus auratus"}, "Syrian golden hamster [6]": {"system": "Syrian golden hamster", "test": "Antidyslipidemic activity in Triton-induced hyperlipidemic Syrian golden hamster model assessed as decrease in PL level at 50 mg/kg measured after 18 hrs", "format": "functional, Mesocricetus auratus", "set-up": "scale not given: the % may be the effect or the level left"}, "Syrian golden hamster [7]": {"system": "Syrian golden hamster", "test": "Antidyslipidemic activity in Triton-induced hyperlipidemic Syrian golden hamster model assessed as decrease in triglyceride level at 50 mg/kg measured after 18 hrs", "format": "functional, Mesocricetus auratus", "set-up": "scale not given: the % may be the effect or the level left"}, "Syrian golden hamster [8]": {"system": "Syrian golden hamster", "test": "Antidyslipidemic activity in Triton-induced hyperlipidemic Syrian golden hamster model assessed as decrease in total cholesterol level at 50 mg/kg measured after 18 hrs", "format": "functional, Mesocricetus auratus", "set-up": "scale not given: the % may be the effect or the level left"}, "Mus musculus [9]": {"species_on_record": "Mus musculus", "test": "Antidiabetic activity in db/db mouse assessed as increase in Akt phosphorylation incubated for 15 mins by Western blot analysis", "format": "functional, organism-based"}, "Rattus norvegicus [10]": {"system": "Rattus norvegicus", "test": "Antidiabetic activity in streptozotocin induced hyperglycemic Wistar rat model assessed as improvement in blood glucose level at 100 mg/kg,po measured upto 24 hrs relative to control", "format": "functional"}, "Rattus norvegicus [11]": {"system": "Rattus norvegicus", "test": "Antidiabetic activity in streptozotocin induced hyperglycemic Wistar rat model assessed as improvement in blood glucose level at 100 mg/kg,po measured upto 5 hrs relative to control", "format": "functional"}, "L6 [12]": {"system": "L6", "test": "Induction of GLUT4myc translocation to rat L6 cells surface at 5 to 25 uM incubated for 20 mins followed by insulin stimulation by colorimetric assay", "format": "functional, cell-based", "settings": "dose 5-25 µM"}, "L6 [13]": {"system": "L6", "test": "Induction of GLUT4myc translocation to rat L6 cells surface measured after 16 hrs by colorimetric assay", "format": "functional, cell-based", "settings": "dose 5-25 µM"}, "Mus musculus [14]": {"system": "Mus musculus", "test": "Antidiabetic activity in db/db mouse assessed as decrease in serum insulin levels at 30 mg/kg administered for 15 consecutive days by oral glucose tolerance test relative to control", "format": "functional", "set-up": "scale not given: the % may be the effect or the level left", "settings": "time 15 day"}, "Mus musculus [15]": {"system": "Mus musculus", "test": "Antidiabetic activity in db/db mouse assessed as decrease in fasting blood glucose level at 30 mg/kg administered for 15 consecutive days by oral glucose tolerance test relative to control", "format": "functional", "set-up": "scale not given: the % may be the effect or the level left", "settings": "time 15 day"}, "Mus musculus [16]": {"system": "Mus musculus", "test": "Antidiabetic activity in db/db mouse assessed as decrease in rise of postprandial hyperglycemia at 30 mg/kg measured after 15 days post glucose challenge by oral glucose tolerance test relative to control", "format": "functional", "set-up": "scale not given: the % may be the effect or the level left", "settings": "time 15 day"}, "Mus musculus [17]": {"system": "Mus musculus", "test": "Antidiabetic activity in db/db mouse assessed as decrease in rise of postprandial hyperglycemia at 30 mg/kg measured after 10 days post glucose challenge by oral glucose tolerance test relative to control", "format": "functional", "set-up": "scale not given: the % may be the effect or the level left", "settings": "time 10 day"}, "Syrian golden hamster [18]": {"system": "Syrian golden hamster", "test": "Antidyslipidemic activity in Triton-induced hyperlipidemic Syrian golden hamster model assessed as increase in lecithin-cholesterol acyltransferase level at 50 mg/kg measured after 18 hrs", "format": "functional, Mesocricetus auratus"}, "L6 [19]": {"system": "L6", "test": "Induction of glucose uptake in rat L6 cells expressing GLUT4 myc epitopes at 5 uM incubated for 24 hrs by scintillation counting method relative to control", "format": "functional"}, "L6 [20]": {"system": "L6", "test": "Induction of glucose uptake in rat L6 cells expressing GLUT4 myc epitopes at 10 uM incubated for 24 hrs by scintillation counting method relative to control", "format": "functional"}, "L6 [21]": {"system": "L6", "test": "Cytotoxicity against rat L6 cells assessed as reduction in cell viability at 5 to 100 uM incubated overnight by MTT assay", "format": "toxicity, cell-based", "settings": "l6, 100 µM, dose 5-100 µM"}, "L6 [22]": {"system": "L6", "test": "Induction of insulin stimulated glucose uptake in rat L6 cells expressing GLUT4 myc epitopes at 10 uM preincubated for 16 hrs followed by 3 hrs incubation under serum deprived medium prior to insulin stimulation for 20 mins", "format": "functional, cell-based", "settings": "time 1160.0 min"}, "Mus musculus [23]": {"species_on_record": "Mus musculus", "test": "Antidiabetic activity in db/db mouse assessed as increase in GLUT4 level incubated for 15 mins by Western blot analysis", "format": "functional, organism-based"}, "Mus musculus [24]": {"species_on_record": "Mus musculus", "test": "Antidyslipidemic activity in db/db mouse assessed as decrease in serum triglyceride level measured after 15 days relative to control", "format": "functional", "set-up": "scale not given: the % may be the effect or the level left", "settings": "time 15 day"}, "Mus musculus [25]": {"species_on_record": "Mus musculus", "test": "Antidyslipidemic activity in db/db mouse assessed as decrease in serum cholesterol level measured after 15 days relative to control", "format": "functional", "set-up": "scale not given: the % may be the effect or the level left", "settings": "time 15 day"}, "Mus musculus [26]": {"species_on_record": "Mus musculus", "test": "Antidyslipidemic activity in db/db mouse assessed as increase in serum HDL-cholesterol level measured after 15 days relative to control", "format": "functional", "settings": "time 15 day"}, "Mus musculus [27]": {"species_on_record": "Mus musculus", "test": "Antidyslipidemic activity in db/db mouse assessed as effect on body weight measured after 9 days", "format": "functional, organism-based", "settings": "time 9.0 day"}}, "note": "Calls of active or inactive are those of the source. The rule behind the calls is not given here."}
{"molecule": "CC1(C)C=Cc2ccc(O)c(C(=O)/C=C/c3ccc4oc(C(=O)c5ccccc5)cc4c3)c2O1", "values": [{"measurement": "Activity", "setting": "Mus musculus [1]", "value": 39.8, "unit": "%"}, {"measurement": "Activity", "setting": "Mus musculus [2]", "value": "Active"}, {"measurement": "Activity", "setting": "[3]", "value": 16}, {"measurement": "Activity", "setting": "[4]", "value": 18}, {"measurement": "Activity", "setting": "Syrian golden hamster [5]", "value": 24, "unit": "%"}, {"measurement": "Activity", "setting": "Syrian golden hamster [6]", "value": 24, "unit": "%"}, {"measurement": "Activity", "setting": "Syrian golden hamster [7]", "value": 18, "unit": "%"}, {"measurement": "Activity", "setting": "Syrian golden hamster [8]", "value": 21, "unit": "%"}, {"measurement": "Activity", "setting": "Mus musculus [9]", "value": "Active"}, {"measurement": "Activity", "setting": "Rattus norvegicus [10]", "value": 25.1, "unit": "%"}, {"measurement": "Activity", "setting": "Rattus norvegicus [11]", "value": 22.8, "unit": "%"}, {"measurement": "Activity", "setting": "L6 [12]", "value": "Active"}, {"measurement": "Activity", "setting": "L6 [13]", "value": "Dose-Dependent Effect"}, {"measurement": "Activity", "setting": "Mus musculus [14]", "value": 23.8, "unit": "%"}, {"measurement": "Activity", "setting": "Mus musculus [15]", "value": 25, "unit": "%"}, {"measurement": "Activity", "setting": "Mus musculus [16]", "value": 29.1, "unit": "%"}, {"measurement": "Activity", "setting": "Mus musculus [17]", "value": 18.2, "unit": "%"}, {"measurement": "Activity", "setting": "Syrian golden hamster [18]", "value": 18, "unit": "%"}, {"measurement": "Activity", "setting": "L6 [19]", "value": 82, "unit": "%"}, {"measurement": "Activity", "setting": "L6 [20]", "value": 249, "unit": "%"}, {"measurement": "Activity", "setting": "L6 [21]", "value": "Non-Toxic"}, {"measurement": "Activity", "setting": "L6 [22]", "value": "inactive"}, {"measurement": "Activity", "setting": "Mus musculus [23]", "value": "Active"}, {"measurement": "Activity", "setting": "Mus musculus [24]", "value": 26.5, "unit": "%"}, {"measurement": "Activity", "setting": "Mus musculus [25]", "value": 21, "unit": "%"}, {"measurement": "Activity", "setting": "Mus musculus [26]", "value": 45.2, "unit": "%"}, {"measurement": "Activity", "setting": "Mus musculus [27]", "value": "Active"}]}
